Patent US20110195420A1, “ESTROGEN AND ANTI-ESTROGEN MARKER GENES” (Merck Patent Gesellschaft, priority 2009, published 2011)
“Also recorded” adds a separate entry of the source. Like-named read-outs stand apart in the source and are kept apart here.

Experiments:
Ishikawa plus cells = assay: Illumina global gene expression profiling in Ishikawa plus cells after 24 h EAC treatment (ANOVA, correlation, K-Means clustering); type: cell-based, human
Description: Cells were routinely maintained in DMEM/F12 with L-Glutamine and 15 mM Hepes supplemented with 10% (v/v) FBS, 1% (v/v) penicillin (10 kU/ml)-streptomycin (10 mg/ml) solution, 0.1% (v/v) Gentamicin (50 mg/ml) and 1 mM sodium pyruvate at 37° C. and 5% CO2 in culture flasks. 5×10^5 cells were seeded onto 6-well plates in phenol-red free DMEM/F12 with L-Glutamine and 15 mM Hepes containing 10% (v/v) dextran-coated charcoal treated FBS, sodium pyruvate and antibiotics.
All experiments were performed three times with cells of passages 3-25.
After a 24 h treatment period cells were rinsed with PBS (Gibco Invitrogen, Karlsruhe, Germany), harvested and total RNA was extracted using the RNeasy Mini Kit (QIAGEN, Hilden, Germany) as described by the manufacturer, including the QIAshredder spin column procedure and on-column RNase-free DNase digestion. RNA was eluted with 40 μl of RNA-Storage solution (Ambion, Darmstadt, Germany). RNA quality control and quantification was determined using a NanoDrop® spectrophotometer (Kisker, Steinfurt, Germany) and 2100 Agilent Bio-Analyzer (Agilent Technologies, Waldbronn, Germany). Only RNA with a quality ratio A260/A280 between 1.9 and 2.1 and no evidence of peak degradation (18s/28s) was used.
Gene expression analysis was executed using Illumina Sentrix® HumanRef-8 V2 BeadChip Arrays (Illumina Inc., San Diego, Calif., USA) allowing the analysis of ˜23,000 transcripts. […] Instead of column cleanup, the bead-based Agencourt® RNAcIean™ system (Beckman Coulter, Krefeld, Germany) was applied to purify cDNA and cRNA. cRNA quantity was measured spectrophotometrically (NanoDrop®) and the 2100 Agilent Bio-Analyzer was used for quality assessment.
Seven hundred fifty nanograms of amplified biotinylated cRNA were hybridized onto the Illumina Sentrix® BeadChip in a Hybridization Cartridge under humidified conditions for 20 h at 58° C. (Hybridization oven, Illumina Inc., San Diego, Calif., USA). The chips were then washed, stained for 10 minutes with 1 μg/ml streptavidin-conjugated Cy3 (Amersham Biosciences, Buckinghamshire, UK) and finally dried by centrifugation according to the protocol provided.
Data were uploaded into Genedata's Expressionist® Analyst software (Genedata AG, Basel, Switzerland) for data normalization and statistical analysis. Data were normalized using Lowess (Locally Weighted Linear Regression) to offset non-biological differences (systematic variation) between the samples and arrays. After normalization fold-regulations for each individual compound treatment were calculated. The global gene set was reduced by filtering any signal intensity<200 (background level) to reduce error rates of multiple testing during further analysis.
Thus, only genes with a p-value and BH-Q-value less than 0.01 were accepted as significant.
For selection of characteristic estrogenicity marker genes, ANOVA was applied to the tested EACs against the vehicle controls. Only genes having a p-value and BH-Q-value less than 0.01 were accepted as significant.

ERα = target: T1, ERα (Homo sapiens, UniProt P03372); conditions: consensus ERE reporter; used as low dose level; read-out: compound concentration causing a half maximal activation of the reporter gene (EC50); cited from earlier work
T1 sequence (P03372 1-595): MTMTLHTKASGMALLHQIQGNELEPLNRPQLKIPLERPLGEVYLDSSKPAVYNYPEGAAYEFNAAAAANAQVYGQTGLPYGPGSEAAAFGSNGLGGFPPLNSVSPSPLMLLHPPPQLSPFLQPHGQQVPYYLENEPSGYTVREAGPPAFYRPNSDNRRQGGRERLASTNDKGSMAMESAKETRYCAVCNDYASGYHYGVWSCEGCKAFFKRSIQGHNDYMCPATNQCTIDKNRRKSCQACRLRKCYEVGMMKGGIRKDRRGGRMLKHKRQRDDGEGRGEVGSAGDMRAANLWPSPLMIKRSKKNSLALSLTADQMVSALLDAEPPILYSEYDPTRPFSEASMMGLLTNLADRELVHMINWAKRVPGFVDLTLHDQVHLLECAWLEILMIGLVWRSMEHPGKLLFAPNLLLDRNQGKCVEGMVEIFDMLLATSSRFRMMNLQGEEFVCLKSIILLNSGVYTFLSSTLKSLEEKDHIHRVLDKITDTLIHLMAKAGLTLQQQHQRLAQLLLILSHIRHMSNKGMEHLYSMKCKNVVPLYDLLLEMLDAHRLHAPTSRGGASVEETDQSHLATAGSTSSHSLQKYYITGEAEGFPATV

[1] = K-Means clustering, p-value/BH-Q-value<0.01, 24 h
[2] = Pearson correlation on significantly regulated genes, 24 h, dose not specified
[3] = clusters 3 and 4, same direction as ICI, 24 h
[4] = Pearson correlation, 24 h, high dose
[5] = Pearson correlation, 24 h, low dose

With `CC/C(=C(/CC)c1ccc(O)cc1)c1ccc(O)cc1` [DES, Diethylstilbestrol] as the compound, how does the “kind of regulated genes identified by K-Means clustering” value (Ishikawa plus cells; 24 h, dose not specified) read?
The value was “only genes with ER-dependent expression profiles; also recorded: Only genes with ER-dependent regulation profiles”.

What about the “number of down-regulated genes with ER-dependent expression profiles” value (Ishikawa plus cells; [1]) of the same compound?
The value was 62.

And the “number of up-regulated genes with ER-dependent expression profiles” value (Ishikawa plus cells; [1])?
Its value is 193.

And the “correlation of gene expression to ICI” value (Ishikawa plus cells; [2])?
The value was “negatively correlated”.

For `Oc1ccc(C=Cc2cc(O)cc(O)c2)cc1` [RESV, Resveratrol], which “estrogen-like gene expression, share of significantly regulated genes” value (Ishikawa plus cells; 24 h) is on record?
The value was 48%.

What about the “portion of the putative estrogenic marker genes regulated unidirectional to ICI” value (Ishikawa plus cells; 24 h) of the same compound?
The value was “one third”.

And the “share of ER-dependent regulated genes (clusters 1 and 2) also regulated in the same direction after DES treatment” value (from here on “share of ER-dependent regulated genes”) (Ishikawa plus cells; 24 h)?
The value was 6%.

What about the “correlation of gene expression compared with DES” value (“correlation … compared with DES” for short) (Ishikawa plus cells; [2]) of the same compound?
The value was “no correlation”.

What about the “correlation of gene expression to ICI” value (Ishikawa plus cells; [2]) of the same compound?
The value was “high positive correlation”.

What about the “anti-estrogen-like gene regulation, share of significantly regulated genes” value (Ishikawa plus cells; [3]) of the same compound?
The value was 52%.

What about the EC50 (ERα) of the same compound?
Its EC50 is 7.5 µM.

For `C[C@]12CC[C@@H]3c4ccc(O)cc4C[C@@H](CCCCCCCCC[S+]([O-])CCCC(F)(F)C(F)(F)F)[C@H]3[C@@H]1CC[C@@H]2O` (stereo partly drawn) [ICI, ICI 182,780], which “regulation of the 87 marker genes” value (Ishikawa plus cells; ICI 100 nM alone and ICI/compound combination, 24 h) is on record?
Its value is “Most genes showed a weaker regulation score or were diametrically regulated”.

Which results are given for `O=c1c(-c2ccc(O)cc2)coc2cc(O)cc(O)c12` [GEN, Genistein]?
doses at which anti-estrogenic gene regulation was displayed (Ishikawa plus cells; 24 h): only at low doses; share of ER-dependent regulated genes (clusters 1 and 2) also regulated in the same direction after DES treatment (Ishikawa plus cells; 24 h): Approximately 66%; correlation of gene expression to ICI (Ishikawa plus cells; [2]): good correlation; correlation of gene expression compared with DES (Ishikawa plus cells; [4]): medium to high correlations; similarity of gene expression with ICI (Ishikawa plus cells; [4]): little similarity; correlation of gene expression compared with DES (Ishikawa plus cells; [5]): low positive correlation; correlation of gene expression to ICI (Ishikawa plus cells; [5]): high positive correlation; also recorded: high correlations; kind of regulated genes identified by K-Means clustering (Ishikawa plus cells; high dose, 24 h): only ER-dependent regulated genes were identified; also recorded: Only genes with ER-dependent regulation profiles; share of low dose deregulated genes similarly regulated by ICI (clusters 5 and 6) (Ishikawa plus cells; low dose, 24 h): approximately 86%

Which “doses at which anti-estrogenic gene regulation was displayed” value (Ishikawa plus cells; 24 h) does the source give for `C[C@H]1CCCC(=O)CCC/C=C/c2cc(O)cc(O)c2C(=O)O1` [ZEA, Zearalenone] here?
Its value is “only at low doses”.

And the “share of ER-dependent regulated genes” value (Ishikawa plus cells; 24 h)?
Its value is “Approximately 66%”.

What about the “correlation of gene expression to ICI” value (Ishikawa plus cells; [2]) of the same compound?
Its value is “good correlation”.

And the “correlation … compared with DES” value (Ishikawa plus cells; [4])?
Its value is “medium to high correlations”.

And the “similarity of gene expression with ICI” value (Ishikawa plus cells; [4])?
Its value is “little similarity”.

And the “correlation … compared with DES” value (Ishikawa plus cells; [5])?
Its value is “low positive correlation”.

What about the “correlation of gene expression to ICI” value (Ishikawa plus cells; [5]) of the same compound?
Its value is “high positive correlation; also recorded: high correlations”.

And the “kind of regulated genes identified by K-Means clustering” value (Ishikawa plus cells; high dose, 24 h)?
Its value is “only ER-dependent regulated genes were identified; also recorded: Only genes with ER-dependent regulation profiles”.

What about the “share of low dose deregulated genes similarly regulated by ICI (clusters 5 and 6)” value (Ishikawa plus cells; low dose, 24 h) of the same compound?
The value was ~91%.

And the EC50 (ERα)?
Its EC50 is 0.0025 µM.

For `CC(C)(c1ccc(O)cc1)c1ccc(O)cc1` [BPA, Bisphenol A], which “share of ER-dependent regulated genes” value (Ishikawa plus cells; 24 h) is on record?
The value was “Eighty”.

What about the “correlation … compared with DES” value (Ishikawa plus cells; [2]) of the same compound?
Its value is “low positive correlation”.

And the “correlation of gene expression to ICI” value (Ishikawa plus cells; [2])?
Its value is “high positive correlation; also recorded: high correlations; also recorded: good correlation”.

What about the “anti-estrogen-like gene regulation, share of significantly regulated genes” value (Ishikawa plus cells; [3]) of the same compound?
The value was 86%.

For `Clc1ccc(C(c2ccccc2Cl)C(Cl)(Cl)Cl)cc1` (stereo not drawn) [DDT, o,p′-Dichlordiphenyltrichlorethane], which “anti-estrogen-like gene regulation, share of significantly regulated genes” value (Ishikawa plus cells) is on record?
The value was 85%.

What about the “correlation … compared with DES” value (Ishikawa plus cells) of the same compound?
Its value is “low positive correlation”.

What about the “correlation of gene expression to ICI” value (Ishikawa plus cells) of the same compound?
The value was “high positive correlation; also recorded: high correlations; also recorded: good correlation”.

What about the “share of ER-dependent regulated genes” value (Ishikawa plus cells) of the same compound?
Its value is 72%.
